{"source": "patent US20060069132A1", "about": "“Azolecarboxamide herbicides” (priority 2004, published 2006)", "key": {"downy bromegrass": {"system": "downy bromegrass", "assay": "Test A pre-/postemergence herbicide test", "type": "in vivo, Bromus tectorum", "conditions": "Preemergence, visual rating, 0 to 100 scale (0 no effect, 100 complete control)", "excerpt": "Seeds of plant species selected from barnyardgrass (Echinochloa crus-galli (L.) Beauv.), downy bromegrass (Bromus tectorum L.), large crabgrass (Digitaria sanguinalis (L.) Scop.), giant foxtail (Setaria faberi Herrm.), morningglory (Ipomoea spp.), redroot pigweed (Amaranthus retroflexus L.) and velvetleaf (Abutilon theophrasti Medik.) were planted into a sandy loam soil and treated preemergence with a directed soil spray using test chemicals formulated in a non-phytotoxic solvent mixture which included a surfactant. At the same time plants selected from these species were also treated postemergence by spraying to runoff with test chemicals formulated.\nPlants ranged in height from 2 to 10 cm and were in the one- to two-leaf stage for the postemergence treatment. Treated plants and untreated controls were maintained in a greenhouse for approximately ten days, after which time all treated plants were compared to untreated controls and visually evaluated for injury. Plant response ratings, summarized in Table A, are based on a 0 to 100 scale where 0 is no effect and 100 is complete control. A dash (-) response means no test results."}, "wild mustard": {"system": "wild mustard", "assay": "Test F pre-/postemergence herbicide test", "type": "in vivo, Sinapis arvensis", "excerpt": "(§1) Seeds of plant species selected from annual blugrass (Poa annua L.), blackgrass (Alopecurus myosuroides Huds.), catchweed bedstraw (Gallium aparine L.), common chickweed (Stellaria media (L.) Vill./Cyr.), downy bromegrass (Bromus tectorum L.), green foxtail (Setaria viridis (L.) Beauv.), Italian ryegrass (Lolium multiflorum Lam.), kochia (Kochia scoparia (L.). Schrad.), lambsquarters (Chenopodium album L.), littleseed canarygrass (Phalaris minor Retz.), pigweed (Amaranthus retroflexus L.), Russian thistle (Salsola kali L. ssp. Ruthenica (Iljin) Soo), wild buckwheat (Polygonum convolvulus L.), wild mustard (Sinapis arvensis L.), wild oat (Avena fatua L.), windgrass (Apera spica-venti (L.) Beauv.), winter barley (Hordeum vulgare L.), and wheat (Triticum aestivum L.) were planted and treated preemergence with test chemicals formulated in a non-phytotoxic solvent mixture which included a surfactant.\n(§2) At the same time, plants selected from these crop and weed species were treated with postemergence applications of some of the test chemicals formulated in the same manner. Plants ranged in height from 2 to 18 cm (1- to 4-leaf stage) for postemergence treatments. Treated plants and controls were maintained in a greenhouse for 12 to 14 days, after which time all species were compared to controls and visually evaluated. Plant response ratings, summarized in Table F, are based on a scale of 0 to 100 where 0 is no effect and 100 is complete control. A dash (-) response means no test result."}, "kochia": {"system": "kochia", "assay": "Test F pre-/postemergence herbicide test", "type": "in vivo, Kochia scoparia", "excerpt": "as §1, §2"}, "green foxtail": {"system": "green foxtail", "assay": "Test F pre-/postemergence herbicide test", "type": "in vivo, Setaria viridis", "excerpt": "as §1, §2"}, "pigweed": {"system": "pigweed", "assay": "Test F pre-/postemergence herbicide test", "type": "in vivo, Amaranthus retroflexus", "excerpt": "as §1, §2"}, "giant foxtail (SETFA)": {"system": "giant foxtail (SETFA)", "assay": "Test J Compounds 2 and 6 alone and in combination with other herbicides, foliage spray", "type": "in vivo, Setaria faberi", "parameters": "key: 0 = no effect, 100 = complete control", "conditions": "applied alone", "excerpt": "(§3) Seeds of test plants consisting of barnyardgrass (ECHCG; Echinochloa crus-galli (L.) Beauv.), blackgrass (ALOMY; Alopecurus myosuroides Huds.), Surinam grass (BRADC; Urochloa decumbens (Staph) R. D. Webster, previously named Brachiaria decumbens Stapf), cocklebur (XANST, Xanthium strumarium L.), corn (ZEAMD, Zea mays L. cv. ‘Pioneer 33G26’), large crabgrass (DIGSA, Digitaria sanguinalis (L.) Scop.), giant foxtail (SETFA, Setaria faberi Herrm.), lambsquarters (CHEAL, Chenopodium album L.), morningglory (IPOCO, Ipomoea coccinea L.), pigweed (AMARE, Amaranthus retroflexus L.), velvetleaf (ABUTH, Abutilon theophrasti Medik.) wheat (TRZAS, Triticum aestivum L. cv. ‘Recital’) and wild oat (AVEFA, Avena fatua L.) were planted in Redi-Earth® planting medium (Scotts Company, 14111 Scottslawn Road, Marysville, Ohio 43041) comprising spaghnum peat moss and vermiculite. Seeds of small-seeded species were planted about 1 cm deep; larger seeds were planted about 2.5 cm deep. Plants were grown in a greenhouse using supplemental lighting to maintain a photoperiod of about 14 hours; daytime and nighttime temperatures were about 24-30° C. and 22-25° C., respectively. Balanced fertilizer was applied through the watering system. […] Also listed in Table J are the expected effects for the mixtures calculated using Colby's Equation."}, "morningglory (IPOCO)": {"system": "morningglory (IPOCO)", "assay": "Test J Compounds 2 and 6 alone and in combination with other herbicides, foliage spray", "type": "in vivo, Ipomoea coccinea", "parameters": "key: 0 = no effect, 100 = complete control", "conditions": "applied alone", "excerpt": "as §3"}}}
{"molecule": "CC(=NO)c1cccc(NC(=O)c2cc(C(C)(C)C)nn2C)c1", "note": "[Compound 102]", "values": [{"measurement": "Bromegrass, Downy plant response rating", "setting": "downy bromegrass; 500 g ai/ha", "result": 60}, {"measurement": "Bromegrass, Downy plant response rating", "setting": "downy bromegrass; 2000 g ai/ha", "result": 60}]}
{"molecule": "CCn1nc(C(C)(C)C)cc1C(=O)Nc1cc(C(=O)OC(C)C)c(F)cc1F", "note": "[Compound 248]", "values": [{"measurement": "Plant response rating (0-100), Mustard, Wild", "setting": "wild mustard; Postemergence, 31 g ai/ha", "result": 30}, {"measurement": "Plant response rating (0-100), Mustard, Wild", "setting": "wild mustard; Postemergence, 62 g ai/ha", "result": 40}, {"measurement": "Plant response rating (0-100), Mustard, Wild", "setting": "wild mustard; Postemergence, 125 g ai/ha", "result": 60}, {"measurement": "Plant response rating (0-100), Mustard, Wild", "setting": "wild mustard; Postemergence, 250 g ai/ha", "result": 60}, {"measurement": "Plant response rating (0-100), Mustard, Wild", "setting": "wild mustard; Preemergence, 31 g ai/ha", "result": 40}, {"measurement": "Plant response rating (0-100), Mustard, Wild", "setting": "wild mustard; Preemergence, 62 g ai/ha", "result": 50}, {"measurement": "Plant response rating (0-100), Mustard, Wild", "setting": "wild mustard; Preemergence, 125 g ai/ha", "result": 50}, {"measurement": "Plant response rating (0-100), Mustard, Wild", "setting": "wild mustard; Preemergence, 250 g ai/ha", "result": 50}, {"measurement": "Plant response rating (0-100), Kochia", "setting": "kochia; Postemergence, 31 g ai/ha", "result": 60}, {"measurement": "Plant response rating (0-100), Kochia", "setting": "kochia; Postemergence, 62 g ai/ha", "result": 60}, {"measurement": "Plant response rating (0-100), Kochia", "setting": "kochia; Postemergence, 125 g ai/ha", "result": 65}, {"measurement": "Plant response rating (0-100), Kochia", "setting": "kochia; Postemergence, 250 g ai/ha", "result": 65}, {"measurement": "Plant response rating (0-100), Kochia", "setting": "kochia; Preemergence, 31 g ai/ha", "result": 50}, {"measurement": "Plant response rating (0-100), Kochia", "setting": "kochia; Preemergence, 62 g ai/ha", "result": 60}, {"measurement": "Plant response rating (0-100), Kochia", "setting": "kochia; Preemergence, 125 g ai/ha", "result": 65}, {"measurement": "Plant response rating (0-100), Kochia", "setting": "kochia; Preemergence, 250 g ai/ha", "result": 100}, {"measurement": "Plant response rating (0-100), Foxtail, Green", "setting": "green foxtail; Postemergence, 31 g ai/ha", "result": 50}, {"measurement": "Plant response rating (0-100), Foxtail, Green", "setting": "green foxtail; Postemergence, 62 g ai/ha", "result": 60}, {"measurement": "Plant response rating (0-100), Foxtail, Green", "setting": "green foxtail; Postemergence, 125 g ai/ha", "result": 60}, {"measurement": "Plant response rating (0-100), Foxtail, Green", "setting": "green foxtail; Postemergence, 250 g ai/ha", "result": 65}, {"measurement": "Plant response rating (0-100), Foxtail, Green", "setting": "green foxtail; Preemergence, 31 g ai/ha", "result": 65}, {"measurement": "Plant response rating (0-100), Foxtail, Green", "setting": "green foxtail; Preemergence, 62 g ai/ha", "result": 65}, {"measurement": "Plant response rating (0-100), Foxtail, Green", "setting": "green foxtail; Preemergence, 125 g ai/ha", "result": 100}, {"measurement": "Plant response rating (0-100), Foxtail, Green", "setting": "green foxtail; Preemergence, 250 g ai/ha", "result": 100}, {"measurement": "Plant response rating (0-100), Pigweed", "setting": "pigweed; Postemergence, 31 g ai/ha", "result": 65}, {"measurement": "Plant response rating (0-100), Pigweed", "setting": "pigweed; Postemergence, 62 g ai/ha", "result": 65}, {"measurement": "Plant response rating (0-100), Pigweed", "setting": "pigweed; Postemergence, 125 g ai/ha", "result": 70}, {"measurement": "Plant response rating (0-100), Pigweed", "setting": "pigweed; Postemergence, 250 g ai/ha", "result": 70}, {"measurement": "Plant response rating (0-100), Pigweed", "setting": "pigweed; Preemergence, 31 g ai/ha", "result": 70}, {"measurement": "Plant response rating (0-100), Pigweed", "setting": "pigweed; Preemergence, 62 g ai/ha", "result": 75}, {"measurement": "Plant response rating (0-100), Pigweed", "setting": "pigweed; Preemergence, 125 g ai/ha", "result": 95}, {"measurement": "Plant response rating (0-100), Pigweed", "setting": "pigweed; Preemergence, 250 g ai/ha", "result": 95}]}
{"molecule": "CCn1nc(C(C)(C)C)cc1C(=O)Nc1cc(C(=O)N(C)C)ccc1F", "note": "[Compound 6, N-[5-[(dimethylamino)carbonyl]-2-fluorophenyl]-3-(1,1-dimethylethyl)-1-ethyl-1H-pyrazole-5-carboxamide]", "values": [{"measurement": "SETFA Obsd.", "setting": "giant foxtail (SETFA); 62 g a.i./ha", "result": 15}, {"measurement": "SETFA Obsd.", "setting": "giant foxtail (SETFA); 125 g a.i./ha", "result": 33}, {"measurement": "IPOCO Obsd.", "setting": "morningglory (IPOCO); 62 g a.i./ha", "result": 22}, {"measurement": "IPOCO Obsd.", "setting": "morningglory (IPOCO); 125 g a.i./ha", "result": 28}]}
